These results are taken from publication PMC6539594, “Triazolopeptides Inhibiting the Interaction between Neuropilin-1 and Vascular Endothelial Growth Factor-165” (Molecules, 2019).

“And” between values parts separate entries of the source, which are not always exact repeats. Equal values may be shown once. “Also recorded” adds a separate entry of the source. Read-outs that look alike come from different tables or passages of the source. Where no end group is shown, it is not given here. [ ]: non-standard residue; d: D form. hArg = N=C(N)NCCCC[C@H](N)C(=O)O; Dab = NCC[C@H](N)C(=O)O

Data set [1] concerns the target T1, NRP-1 (neuropilin-1), binding of bt-VEGF165 (Homo sapiens, UniProt O14786). Put plainly: ELISA: inhibition of bt-VEGF165 binding to NRP-1. The following applies: for inhibition at 10 µM / Inhibition of bt-VEGF165 Binding to NRP-1 [10 µM]: mean ± S.D. The procedure: The inhibitory activity of obtained triazolopeptides 1–23 toward binding of VEGF165 to NRP-1 was measured with the enzyme-linked immunosorbent assay (ELISA). This protocol was described earlier in the literature and was broadly used by our group. VEGF165 was used in biotinylated form (bt-VEGF165).
This assay was carried out according to a previously described method.
Background: ELISA stands for enzyme-linked immunosorbent assay.

Data set [2] in a line: Proteolytic stability by incubation in human plasma at 37 °C (HPLC-MS). It is filed as in vitro ADME. The following applies: for remaining at 8 h, 1.1 µmol/mL / remaining at 16 h, 1.1 µmol/mL / remaining at 24 h, 1.1 µmol/mL / remaining at 32 h, 1.1 µmol/mL / remaining at 40 h, 1.1 µmol/mL / remaining at 48 h, 1.1 µmol/mL: human; for remaining at 8 h, 1.1 µmol/mL / remaining at 16 h, 1.1 µmol/mL / remaining at 24 h, 1.1 µmol/mL / remaining at 32 h, 1.1 µmol/mL / remaining at 40 h, 1.1 µmol/mL / remaining at 48 h, 1.1 µmol/mL / half-life: pooled human plasma. The procedure:
The samples of the incubated solutions were taken at constant time intervals (every 8 h) and analyzed with the use of HPLC-MS. This technique allows for determination of the proteolysis rate, and enables finding the cleavage sites by structural determination of appearing metabolites. To this aim, we used a previously established protocol.
The human plasma was provided by Mossakowski Medical Research Centre Polish Academy of Sciences (venous blood was obtained from three healthy donors and plasma samples were pooled in equal volumes). Triazolopeptide stock solution was prepared to achieve concentration ca. 1.4 mg/mL. Then, this solution was diluted two-fold into human plasma, affording a final concentration of ca. 1.1 µmol/mL. The samples were mixed on vortex mixer and incubated at 37 °C with 700 rpm mixing in thermoblock. Samples of 100 µL were taken every 8 h; the enzymatic cleavage was quenched by addition of 200 µL of 15% aqueos trichloroacetic acid and vortexed for a while. Precipitated proteins were then centrifuged at 14,000 rpm and 4 °C for 10 min to pellet them. After that, 150 µL of supernatant was taken and analyzed on HPLC-MS (quadrupole mass analyzer and electrospray ionization source). The system was equipped with Jupiter Proteo column I.D. 2.0 mm × 250 mm, phase A: ultrapure water + 0.05% TFA, phase B: gradient grade acetonitrile + 0.05% TFA, detection at 210 nm, quadrupole fixed on scan mode. Elution was with linear increase from 0% to 15% of phase B in 30 min, flow = 0.2 mL/min. All samples were analyzed trice in independent experiments.

The subject of data set [3] is myeloblast-like cell line derived from bone marrow (32D). Nature of the data set: In vitro cell survival test (Muse Count & Viability Kit). The settings on record: 32D cells.
Description: For this reason, we carried out a preliminary cytotoxicity assay on murine progenitor cells (myeloblast-like cell line derived from long term cultures of bone marrow 32D) to investigate the impact of 4 at different concentrations on their viability.
For the cell survivability test, the myeloblast-like cell line derived from long term cultures of bone marrow (32D, ATCC #CRL-11346) was used. Experiments were carried out using Muse Count & Viability Kit and Muse Cell Analyzer (Merck Millipore) according to the procedure given. Cells were incubated for 24 or 48 h with given 4 concentration. Each experiment was performed in three technical replications in three independent experiments.
A further data set is described as follows: in vitro. The following applies: mouse, cell viability (Muse Cell Analyser), single replicates.
Data set [4] concerns the target T1, NRP-1 (neuropilin-1), binding of bt-VEGF165. The settings on record: cited from earlier work.
Data set [5] has as its system drug-resistant MDA-MB-231 human breast cancer cells xenograft. Set-up: method as in PMID 16959272. The following applies: nude mice xenografted with drug-resistant MDA-MB-231 human breast cancer cells; cited from earlier work. A general note: In xenograft studies the graft and the host belong to different species.
On the set-up of data set [6]: method as in PMID 30241012. The following applies: human plasma; cited from earlier work.
[7] abbreviates: read-out: Relative (peak area average vs 0 h).

T1 sequence (O14786 22-923, species assumed): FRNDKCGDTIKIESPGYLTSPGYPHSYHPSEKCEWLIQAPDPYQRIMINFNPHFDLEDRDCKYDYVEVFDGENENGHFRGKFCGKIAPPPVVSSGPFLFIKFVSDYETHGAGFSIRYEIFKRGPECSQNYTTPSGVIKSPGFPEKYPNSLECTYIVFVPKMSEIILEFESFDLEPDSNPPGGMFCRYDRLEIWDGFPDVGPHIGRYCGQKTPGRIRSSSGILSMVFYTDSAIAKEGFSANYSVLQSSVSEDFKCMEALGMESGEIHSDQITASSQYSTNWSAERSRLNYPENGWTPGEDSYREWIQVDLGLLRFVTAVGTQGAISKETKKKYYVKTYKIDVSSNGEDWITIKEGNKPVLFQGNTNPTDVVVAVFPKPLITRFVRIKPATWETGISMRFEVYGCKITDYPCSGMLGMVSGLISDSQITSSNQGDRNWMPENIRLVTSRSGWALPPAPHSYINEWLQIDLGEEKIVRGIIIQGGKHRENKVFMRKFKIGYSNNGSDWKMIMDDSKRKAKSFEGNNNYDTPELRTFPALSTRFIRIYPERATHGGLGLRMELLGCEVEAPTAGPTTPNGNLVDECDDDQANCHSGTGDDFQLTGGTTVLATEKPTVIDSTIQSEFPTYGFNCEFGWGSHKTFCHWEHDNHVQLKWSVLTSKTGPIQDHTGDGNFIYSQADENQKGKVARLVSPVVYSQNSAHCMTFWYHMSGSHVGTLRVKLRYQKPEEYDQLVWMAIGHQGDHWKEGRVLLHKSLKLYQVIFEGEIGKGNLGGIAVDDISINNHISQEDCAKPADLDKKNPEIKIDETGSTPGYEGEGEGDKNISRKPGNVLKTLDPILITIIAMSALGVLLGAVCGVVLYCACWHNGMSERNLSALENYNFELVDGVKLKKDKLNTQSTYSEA

Usually IC50 stands for the concentration needed to halve the response being measured. For orientation: inhibition means the relative decrease from the control value, in per cent. Read a low inhibition as a response near the control. The half-life is the time in which the quantity being followed falls by half. A higher half-life goes with slow decline. In data set [1], `N=C(N)NCCCC[C@H](N)C(=O)NCCCC[C@H](N)C(=O)NCc1cn(Cc2cn([C@@H](CCCNC(=N)N)C(=O)O)nn2)nn1` [Compound 3, Lys(Har)-GlyΨ[Trl]GlyΨ[Trl]Arg] gave an IC50 of 8.39 µM and an inhibition at 10 µM of 58.1 ± 2.1%. Moreover, in data set [2], the “compound remained in the solution after 48 h of incubation” value is reported as “more than 70%” and the half-life was over 48 h. Moreover, in data set [2] (setting [7]), the remaining at 8 h, 1.1 µmol/mL was found to be 91.3%; the remaining at 16 h, 1.1 µmol/mL stood at 90%; the remaining at 24 h, 1.1 µmol/mL stood at 87.6%; the remaining at 32 h, 1.1 µmol/mL was found to be 81.8%. For the same molecule, in data set [2] (setting [7]), the remaining at 40 h, 1.1 µmol/mL was determined as 73.4% and the remaining at 48 h, 1.1 µmol/mL worked out at 72.2%. Besides, the remaining at 48 h, 1.1 µmol/mL in data set [2] (read-out: compound remained in the solution after 48 h of incubation) is about 70%.

The viability is a read-out of living cells in per cent, often relative to untreated cells. Read a low viability as a greater loss of cells. Consider `N=C(N)NCCCC[C@H](N)C(=O)NCCCC[C@@H](N)C(=O)NCc1cn(Cc2cn([C@@H](CCCNC(=N)N)C(=O)O)nn2)nn1` [Compound 4, D-Lys(Har)-GlyΨ[Trl]GlyΨ[Trl]Arg], for which, in data set [1], the IC50 stood at 10.2 µM and the inhibition at 10 µM worked out at 52.6 ± 1.3%. Also, in data set [2], the “compound remained in the solution after 48 h of incubation” value is given as “almost undigested; also recorded: almost non-degraded” and the half-life was over 48 h. In data set [2] (setting [7]), the remaining at 8 h, 1.1 µmol/mL was determined as 99.4%; the remaining at 16 h, 1.1 µmol/mL is 95.7%; the remaining at 24 h, 1.1 µmol/mL came out at 93.3%; the remaining at 32 h, 1.1 µmol/mL is 93.1%. Moreover, in data set [2] (setting [7]), the remaining at 40 h, 1.1 µmol/mL is 93% and the remaining at 48 h, 1.1 µmol/mL came to 91.8%. For the same molecule, the “impact on cell survivability” value in data set [3] (100 µM, 48 h incubation) is on record as “does not exhibit any significant impact on normal cells’ viability; also recorded: does not exhibit any significant impact on cell survivability”. In addition, the “cell survival, t-test” value in data set [3] (different concentrations) is on record as “No significant differences in cell survival”. For the same molecule, in “in vitro”, the viability at 24 h, 0.1 µM is 99.4%; the viability at 24 h, 1 µM was 99.3%; the viability at 24 h, 10 µM is 99%; the viability at 24 h, 50 µM worked out at 98.7%. In the data set “in vitro”, this molecule gave a viability at 24 h, 100 µM of 98.6%; a viability at 48 h, 0.1 µM of 99.4%; a viability at 48 h, 1 µM of 99.6%; a viability at 48 h, 10 µM of 99.4%. In “in vitro”, this molecule gave a viability at 48 h, 50 µM of 99.7% and a viability at 48 h, 100 µM of 99.2%.

`N=C(N)NCCCC[C@@H](N)C(=O)NCCCC[C@@H](N)C(=O)NCc1cn(Cc2cn([C@@H](CCCNC(=N)N)C(=O)O)nn2)nn1` [Compound 5, D-Lys(D-Har)-GlyΨ[Trl]GlyΨ[Trl]Arg] gave an inhibition at 10 µM in data set [1] of 48.5 ± 2.9%. Besides, the IC50 in data set [1] (dose-response curve, supplement) was 9.11 µM.

In the case of ATWKPPR [A7R], in data set [4], the “Inhibition of bt-VEGF165 Binding to NRP-1 [10 µM]” value (shortened to “Inhibition of bt-VEGF165 Binding”) is on record as 61.0 ± 0.4 ^3% and the IC50 is 5.86 µM. In data set [5], the activity in vivo entry is given as “active in vivo”.

“D-Lys(Fmoc-Har)-GlyΨ[Trl]GlyΨ[Trl]Arg [Compound 15]”: the “Inhibition of bt-VEGF165 Binding” value in data set [1] is reported as 43.7 ± 0.5%.

Regarding D-Lys(Har)-GlyΨ[Trl]Arg [Compound 2], the “Inhibition of bt-VEGF165 Binding” value in data set [1] is 33.1 ± 1.9%.

For the molecule “D-Lys(Har)-Phe-GlyΨ[Trl]Arg [Compound 9]”, the “Inhibition of bt-VEGF165 Binding” value in data set [1] was found to be 37.9 ± 1.1%.

On to “D-Lys(Har)-Pro-GlyΨ[Trl]Arg [Compound 7]”, for which the “Inhibition of bt-VEGF165 Binding” value in data set [1] is 38.4 ± 1.5%.

Turning to “Dab(Har)-GlyΨ[Trl]GlyΨ[Trl]Arg [Compound 17]”, the “Inhibition of bt-VEGF165 Binding” value in data set [1] worked out at 41.3 ± 0.5%.

Take “Dap(Har)-GlyΨ[Trl]GlyΨ[Trl]Arg [Compound 18]”: the “Inhibition of bt-VEGF165 Binding” value in data set [1] amounted to 25.3 ± 3.5%.

For the molecule “Har-5Ava-GlyΨ[Trl]GlyΨ[Trl]Arg [Compound 20]”, in data set [1], the “Inhibition of bt-VEGF165 Binding” value turned out to be 29.7 ± 1.8%.

“Har-6Ahx-GlyΨ[Trl]GlyΨ[Trl]Arg [Compound 19]”: the “Inhibition of bt-VEGF165 Binding” value in data set [1] came out at 30.5 ± 0.6%.

On to “Har-Ala-GlyΨ[Trl]GlyΨ[Trl]Arg [Compound 21]”, for which the “Inhibition of bt-VEGF165 Binding” value in data set [1] is 27.8 ± 2.1%.

As to “Har-Gly-GlyΨ[Trl]GlyΨ[Trl]Arg [Compound 22]”, in data set [1], the “Inhibition of bt-VEGF165 Binding” value is listed as 35.7 ± 1.6%.

Take Har-GlyΨ[Trl]GlyΨ[Trl]Arg [Compound 23]: in data set [1], the “Inhibition of bt-VEGF165 Binding” value was 20.0 ± 2.1%.

“Har-GlyΨ[Trl]GlyΨ[Trl]GlyΨ[Trl]Arg [Compound 13]”: in data set [1], the “Inhibition of bt-VEGF165 Binding” value came to 34.8 ± 1.5%.

As to “Har-Lys-GlyΨ[Trl]GlyΨ[Trl]Arg [Compound 16]”, the “Inhibition of bt-VEGF165 Binding” value in data set [1] was 36.5 ± 1.4%.

As to Har-Pro-GlyΨ[Trl]Arg [Compound 12], the “Inhibition of bt-VEGF165 Binding” value in data set [1] was found to be 9.2 ± 0.8%.

Turning to “Lys(Fmoc-Har)-GlyΨ[Trl]GlyΨ[Trl]Arg [Compound 14]”, in data set [1], the “Inhibition of bt-VEGF165 Binding” value was 57.7 ± 1.8%.

Lys(Har)-Dab-Pro-Arg: in data set [4], the “Inhibition of bt-VEGF165 Binding” value was 98.5% and the IC50 is 0.2 µM. For the same molecule, the t1/2 in data set [6] is 34 h.

Consider Lys(Har)-Dap-Pro-Arg, for which, in data set [4], the “Inhibition of bt-VEGF165 Binding” value is recorded as 96.8% and the IC50 is 0.2 µM. Further, the t1/2 in data set [6] is 41 h.

On to Lys(Har)-GlyΨ[Trl]Ala-Arg [Compound 10], for which, in data set [1], the “Inhibition of bt-VEGF165 Binding” value is 43.3% and 43.2 ± 1.5%.

Lys(Har)-GlyΨ[Trl]Arg [Compound 1]: the “Inhibition of bt-VEGF165 Binding” value in data set [1] was found to be 28.1 ± 1.2%.

As for Lys(Har)-GlyΨ[Trl]Gly-Arg [Compound 11], the “Inhibition of bt-VEGF165 Binding” value in data set [1] is 30.6 ± 1.1%.

For Lys(Har)-Phe-GlyΨ[Trl]Arg [Compound 8], the “Inhibition of bt-VEGF165 Binding” value in data set [1] was 30.9 ± 2.1%.

As for Lys(Har)-Pro-Ala-Arg, the t1/2 in data set [6] is 0.65 h.

In the case of Lys(Har)-Pro-Ala-Arg (KPAR), in data set [4], the IC50 was 0.2 µM.

With Lys(Har)-Pro-Dab-Arg, in data set [6], the t1/2 was 0.733 h.

With Lys(Har)-Pro-Dab-Arg (K(hArg)P[Dab]R), the IC50 in data set [4] is 0.3 µM.

Turning to Lys(Har)-Pro-GlyΨ[Trl]Arg [Compound 6], in data set [1], the “Inhibition of bt-VEGF165 Binding” value came to 18.3 ± 0.9%.

On to “Lys-Pro-Pro-Arg (KPPR; printed: Lys-Pro-Pro-Arg)”, for which, in data set [4], the “Inhibition of bt-VEGF165 Binding” value is on record as 64.5% and the IC50 is 4.6 µM.
